Article PMC11542186, “Pin1 WW Domain Ligand Library Synthesized with an Easy Solid-Phase Phosphorylating Reagent” (Biochemistry, 2024)

Columns and labels:
Pin1 WW domain = biological target: Pin1 WW domain; parameters: method as in PMID 10932246; conditions: read-out: affinity for the WW domain; cited from earlier work
full-length Pin1 = biological target: full-length Pin1; parameters: method as in PMID 10932246; conditions: read-out: affinity for full-length Pin1; cited from earlier work
Pin1 catalytic domain = tested on: Pin1 catalytic domain; parameters: method as in PMID 10932246; conditions: cited from earlier work
[1] = biological target: T1, Pin1 WW domain (Pin1–HRP) (Homo sapiens, UniProt Q13526); test: ELEBA competitive binding Kd-obs determination; conditions: for Kd: competitive with plate-linked L1, concentration at which % Pin1-HRP bound to the plate is 50%, purified resynthesized ligands, 200 pM Pin1–HRP
T1 construct: purchased R&D Systems
Protocol: Concentration-dependent ELEBAs were performed for ligands 1{2, d}, 1{18, l}, cis-1{2, n}, and trans-1{2, n} obtained by large-scale manual solid-phase synthesis and purification. The cis- and trans-isomers of 1{2, d} were separated by HPLC. The two diastereomers (∼ 1:1) of 1{18, l} were used as a mixture because they were inseparable in our systems. Competitive dissociation constants (Kd-obs) were measured by ELEBA (Figure 4). Kd-obs values were normalized to percentage Pin1–HRP bound to the plate-linked ligand by setting the lowest concentration of competitive ligand in solution to 100% binding.[32]Kd-obs is defined as the concentration of a ligand where the % Pin1-HRP bound to the plate is 50%.
(§1) The Pin1 WW domain ligand, Fmoc–VPRpTPVGGGK–NH2, (100 μL/well, 245 μM stock solution) was covalently attached to a 96-well plate through the ε-amino group of the Lys side chain at pH 11.0, as published.[44] Ligands were dissolved in DMSO at stock concentrations of ca. 50 mM by weight. Competitive binding with plate-linked Fmoc–VPRpTPVGGGK–NH2L1 of pSer–Pro dipeptides was measured at ca. 600 μM for primary screening. In the primary assays, all library members were screened with the crude products. 1{1-21, d} were measured as mixtures of cis- and trans-isomers. Library members synthesized from racemic reagents, such as 1{1-21, c}, 1{1-21, l}, 1{1-21, q}, 1{3, a-q} and 1{8, a-q} were measured as diastereomeric mixtures. The library members were dissolved in DMSO as stock solutions with a concentration of about 37 mM based on estimated yields. The DMSO stock solution of each compound (4 μL) was added into a solution of recombinant Pin1–HRP (R&D Systems) in a PBS buffer with 2% BSA (pH = 7.3). DMSO (4 μL) was used as a negative control. The final volume of the solution was 250 μL, the final concentration of Pin1–HRP was 200 pM, and the estimated final compound concentration was 590 μM. The resulting solution was preincubated for 30 min at ambient temperature, and was added into two wells (100 μL each, for assay in duplicate) of the ligand-linked plate. The solutions were incubated for another 1 h. The solutions were removed by inverting and shaking the plate, and the plate was washed with buffer ([…], and 0.05% Tween 20 in PBS at pH 7.3) three times. A 1:1 solution of hydrogen peroxide and 3,3,5,5′-tetramethylbenzidine (100 μL) was added into each plate well, and incubated in the dark for 20 min. A 2N H2SO4 solution (50 μL) was added to each well to quench the reaction, and the absorbance of was determined at 450 nm. The percentage of Pin1–HRP bound to the plate (% binding) was calculated by eq 1. To calculate the absorbance of a plate well in eq 1, the blank ligand-linked plate was predetermined at the same wavelength, and the absorbance of the blank well was subtracted from the absorbance of the same well containing the final solution. [drawing 2] 1
The competitive dissociation constants, Kd-obs, of cis-1{2, d}, trans-1{2, d}, 1{2,o}, and 1{18, m} were determined by ELEBA after the large-scale synthesis, HPLC purification, and quantification. The final concentrations of each compound were: 2.0, 10, 30, 50, 100, 200, 300, 500, 700, 1000, and 2000 μM. Ligands stock concentrations were 88 mM by weight, and the final concentrations for competitive dissociation constants (Kd) were 2000, 1000, 700, 500, 300, 200, 100, 50, 30, 10, and 5.0 μM. […]

[2] = biological target: T2, Pin1 WW domain (full-length 15N-Pin1) (Homo sapiens, UniProt Q13526); test: NMR 15N-1H HSQC chemical shift perturbation titration; assay type: binding; conditions: global two-state fit of WW domain NH CSPs; 295 K; pH 6.6; 48.6 μM Pin1; read-out: NMR CSP Kd
T2 construct: Full-length Pin1 was overexpressed and purified as described previously; made in house
Excerpt: The ELEBA was developed as a method for high-throughput screening, rather than as an absolute measure of binding affinity. […] Since L1 is linked to the plate, ELEBA is not to be taken as a direct measurement of binding affinity.[32] We undertook NMR measurements to determine the affinity and location of binding directly by NMR to distinguish between binding to the catalytic and WW domains of Pin1. Standard NMR backbone ^15N–^1H chemical shifts were mapped onto existing assignments of Pin1 by recording 2-D ^15N–^1H HSQC spectra of full-length ^15N-Pin1 at different ligand concentrations (Figures S2–S5). NH cross-peaks showing ligand-induced chemical shift perturbations (CSPs) identified residues affected by binding. The largest magnitude CSPs were localized to the WW domain.
Full-length Pin1 was overexpressed and purified as described previously.[47] The final NMR buffer conditions were 30 mM imidazole-D4, pH 6.6, with 30 mM NaCl, 0.03% NaN3, 5 mM DTT-d10, and 90%H2O/10%D2O. The ligand stock solutions included 2.4 and 24 mM for 1{18,l}; 2.4 and 16 mM for trans-1{2,d}; 2.4 and 12 mM for cis-1{2,d}; 2.4 mM and 12 mM for 1{2,n}. The stock concentrations were confirmed by standard 1-D ^1H NMR of the samples diluted in the buffer described above.
The NMR titration spectra were recorded at a nominal temperature of 295 K, on a Bruker Avance 700 MHz (16.4 T) spectrometer equipped with a cryogenically cooled TCI probe. Sequential resonance assignments for wild type Pin1 were from our prior publications.[34],[35],[46]−[48] Data processing and cross-peak analysis used Topspin 1.3 and 2.1 (Bruker Biospin, Inc.), and Sparky (T. D. Goddard and D. G. Kneller, SPARKY 3, University of California, San Francisco). The initial Pin1 concentration (apo-Pin1) was 48.6 μM. We recorded 2-D ^15N–^1H HSQC spectra per Mori et al.[51] after each addition of ligand to get NH binding isotherms (NH chemical shift perturbations as a function of the total ligand concentration). Each 2-D data set consisted of 128 FIDs (64 complex points), with 16 scans per FID and a recycle time of 1s. The ^1H^N spectral width was 15 ppm, centered at 4.703 ppm; the ^15N spectral width was 35.24 ppm, centered at 118 ppm. The binding-induced ^15N–^1H chemical shift perturbations (CSPs) were calculated by eq 3. [drawing 4] 3 [35]
The ΔδH and ΔδN terms are the amide ^1H and ^15N chemical shift differences relative to isolated Pin1. To estimate the ligand Kd values for WW domain binding, we globally fitted WW domain NH binding isotherms to the expression for the bound protein fraction in a standard two-state binding equilibrium, P + L ⇌ PL, as described in our previous Pin1 studies.[35] The monitored WW domain residues included K13, R14, M15, S16, G20, R21, A31, S32, Q33, W34, and E35. […]

[3] = biological target: T1, Pin1 WW domain (Pin1–HRP); test: ELEBA primary screening assay of the library; assay type: binding; conditions: separate plate of groups A and B (L2 control 85.0443); crude library members; DMSO = 100%; mean of N = 2
Protocol: (§2) The library was screened by the ELEBA we reported previously.[44] The crude products resulting from diethyl ether precipitation were used for the primary and secondary ELEBA without additional purification. The concentrations of the crude products were estimated based on quantitative yields; actual concentrations were thus lower, depending on yield and purity. The library products were dissolved in DMSO as stock solutions for assays. […] Recombinant human Pin1 conjugated to horseradish peroxidase (Pin1–HRP) was used in the binding assays.[44] Fmoc-VPRpTPVGGGK-NH2 L2 was used as the positive control and DMSO was used as the negative control on each plate. The percent of Pin1–HRP bound to the plate was calculated by normalizing the binding with DMSO to be 100%. In the primary assays (Figure S1), 14 of the best library members were identified: 1{2,d}, 1{18,f}, 1{20,f}, 1{10, l}, 1{13, l}, 1{18, l}, 1{20, l}, 1{10, n}, 1{18, n}, 1{19, n}, 1{2, n}, 1{20, n}, 1{14, o}, 1{3, o}. In the secondary assay, these ligands were measured again at 270 μM, and three hits, 1{2, d}, 1{18, l} and 1{2, n}, were chosen for further analysis (Figure 3).
as §1, with “2] 1 […]” for “2] 1”
The Fmoc-Ser(2- […]
cyanoethylphosphate)-OH product was cleaved from the resin with TFA. 1H NMR indicated the presence of the Fmoc group, implying that the substrate was successfully attached to the resin (data not shown). To develop the coupling methods, 2-(2-naphthyl)ethylamine and propionic acid were reacted with the pSer–Pro resin. The resulting propanoyl-pSer–Pro–(2-(2-naphthyl)ethyl)-amide (1H NMR below) was excluded from the library assays.
Figure S1 (following pages). Ligands (group A – O) were screening using ELEBA at ca. 266 µM.
Fmoc-VPRpTPVGGGK-NH2 L2 was used as positive control at 76-87 µM from stock solutions […]
of 4.3-4.8 mM. […]

[4] = biological target: T1, Pin1 WW domain (Pin1–HRP); test: ELEBA secondary binding assay; conditions: 270 μM; crude product; DMSO = 100%
Protocol: as §2
The best ligands from each group that blocked Pin1 WW domain binding of HRP-Pin1 bound to plate were reassayed at 270 μM to identify the best ligands through the same procedures above.

T2 sequence (Q13526 whole entry, the tested form may be a part): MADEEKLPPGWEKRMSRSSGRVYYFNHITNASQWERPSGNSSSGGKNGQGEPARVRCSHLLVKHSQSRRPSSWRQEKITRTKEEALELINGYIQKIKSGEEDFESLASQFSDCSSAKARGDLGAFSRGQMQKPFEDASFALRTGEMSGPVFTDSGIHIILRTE
T1 sequence (Q13526 whole entry, the tested form may be a part): as above

Kd [1] [µM] | Kd [2] [µM] | Compound | also measured
206 ± 3 | 208 ± 6 | CC(C)(Oc1ccc(Cl)cc1)C(=O)NC(COP(=O)(O)O)C(=O)N1CCCC1C(=O)Nc1ccc2[nH]ncc2c1 (centres unmarked) [1{2, n}] | 
820 ± 6 | 214 ± 25 | O=C(C=CSc1ccccc1)NC(COP(=O)(O)O)C(=O)N1CCCC1C(=O)Nc1ccc2[nH]ncc2c1 (stereo not drawn) [trans-1{2, d}] | 

Continued, compound first:

Compound | Kd [1] [µM] | Kd [2] [µM] | also measured
Fmoc–VPRpTPVGGGK–NH2 [Compound L1] |  |  | Kd (Pin1 WW domain): 7.7 µM; Kd (full-length Pin1): 4.9 µM; binding to the catalytic domain (Pin1 catalytic domain): no binding
COc1ccc2c(c1)C(CC(=O)NC(COP(=O)(O)O)C(=O)N1CCCC1C(=O)NNC(=O)c1ccoc1)CC2=O (centres unmarked) [1{18, l}] | 130 ± 3 | 105 ± 9 | 
O=C(/C=C/c1c[nH]cn1)N[C@@H](COP(=O)(O)O)C(=O)N1CCC[C@H]1C(=O)N1CCOCC1 [1{20,b}] |  |  | % of Pin1-HRP bound to plate-linked ligand [3]: 76.1089%; ELEBA secondary screen, % of baseline activity [4]: ca. 140%
O=C(C=CSc1ccccc1)NC(COP(=O)(O)O)C(=O)N1CCCC1C(=O)Nc1ccc2[nH]ncc2c1 (stereo not drawn) [cis-1{2, d}] | 263 ± 6 | 95 ± 6 | relative potency cis vs trans isomer ([1]; ELEBA Kd-obs of cis-1{2, d} vs trans-1{2, d}): about three times as potent as trans-1{2, d}
